# According to the NIST ThermoML archive (doi:10.1021/je400004j):
# Numbers after ± are expanded uncertainties.
# Test: xn = mol fraction of the nth substance listed
# Conditions: 298.15 K, Ring tensiometer, x1 = 0.5
row,Structure (SMILES),surface tension liquid-gas
1,CCCCn1cc[n+](CC)c1.CCOP(=O)([O-])OCC [1-butyl-3-ethyl-1H-imidazol-3-ium diethyl phosphate] + CCO,27.6 ± 0.4 mN/m
2,CCCCn1cc[n+](CC)c1.CCOP(=O)([O-])OCC [1-butyl-3-ethyl-1H-imidazol-3-ium diethyl phosphate] + CO,30.9 ± 0.4 mN/m
3,CCCCn1cc[n+](CC)c1.CCOP(=O)([O-])OCC [1-butyl-3-ethyl-1H-imidazol-3-ium diethyl phosphate] + O,32.6 ± 0.5 mN/m
4,CCCCn1cc[n+](C)c1.COP(=O)([O-])OC [1-butyl-3-methyl-1H-imidazolium dimethylphosphate] + CCO,28.5 ± 0.4 mN/m
5,CCCCn1cc[n+](C)c1.COP(=O)([O-])OC [1-butyl-3-methyl-1H-imidazolium dimethylphosphate] + CO,33.8 ± 0.5 mN/m

# Same assay, conditions: 298.15 K, Ring tensiometer, x1 = 0.6
row,Structure (SMILES),surface tension liquid-gas
1,"CCOP(=O)([O-])OCC.CCn1cc[n+](CC)c1 [1,3-diethyl-1H-imidazol-3-ium diethyl phosphate] + CCO",29.6 ± 0.4 mN/m
2,"CCOP(=O)([O-])OCC.CCn1cc[n+](CC)c1 [1,3-diethyl-1H-imidazol-3-ium diethyl phosphate] + CO",34 ± 0.5 mN/m
3,"CCOP(=O)([O-])OCC.CCn1cc[n+](CC)c1 [1,3-diethyl-1H-imidazol-3-ium diethyl phosphate] + O",36.2 ± 0.5 mN/m
4,"COP(=O)([O-])OC.Cn1cc[n+](C)c1 [1,3-dimethylimidazolium dimethylphosphate] + CCO",32.7 ± 0.5 mN/m
5,"COP(=O)([O-])OC.Cn1cc[n+](C)c1 [1,3-dimethylimidazolium dimethylphosphate] + CO",40 ± 0.5 mN/m
6,"COP(=O)([O-])OC.Cn1cc[n+](C)c1 [1,3-dimethylimidazolium dimethylphosphate] + O",49.3 ± 0.7 mN/m
7,CCCCn1cc[n+](CC)c1.CCOP(=O)([O-])OCC [1-butyl-3-ethyl-1H-imidazol-3-ium diethyl phosphate] + CCO,28.5 ± 0.4 mN/m
8,CCCCn1cc[n+](CC)c1.CCOP(=O)([O-])OCC [1-butyl-3-ethyl-1H-imidazol-3-ium diethyl phosphate] + CO,31.1 ± 0.4 mN/m
9,CCCCn1cc[n+](CC)c1.CCOP(=O)([O-])OCC [1-butyl-3-ethyl-1H-imidazol-3-ium diethyl phosphate] + O,32.5 ± 0.5 mN/m
10,CCCCn1cc[n+](C)c1.COP(=O)([O-])OC [1-butyl-3-methyl-1H-imidazolium dimethylphosphate] + CCO,30.5 ± 0.4 mN/m
11,CCCCn1cc[n+](C)c1.COP(=O)([O-])OC [1-butyl-3-methyl-1H-imidazolium dimethylphosphate] + CO,35.1 ± 0.5 mN/m

# Same assay, conditions: 298.15 K, Ring tensiometer, x1 = 0.7
row,Structure (SMILES),surface tension liquid-gas
1,"CCOP(=O)([O-])OCC.CCn1cc[n+](CC)c1 [1,3-diethyl-1H-imidazol-3-ium diethyl phosphate] + CCO",31.1 ± 0.4 mN/m
2,"CCOP(=O)([O-])OCC.CCn1cc[n+](CC)c1 [1,3-diethyl-1H-imidazol-3-ium diethyl phosphate] + CO",34.4 ± 0.5 mN/m
3,"CCOP(=O)([O-])OCC.CCn1cc[n+](CC)c1 [1,3-diethyl-1H-imidazol-3-ium diethyl phosphate] + O",36 ± 0.5 mN/m
4,"COP(=O)([O-])OC.Cn1cc[n+](C)c1 [1,3-dimethylimidazolium dimethylphosphate] + CCO",35 ± 0.5 mN/m
5,"COP(=O)([O-])OC.Cn1cc[n+](C)c1 [1,3-dimethylimidazolium dimethylphosphate] + CO",41.6 ± 0.6 mN/m
6,"COP(=O)([O-])OC.Cn1cc[n+](C)c1 [1,3-dimethylimidazolium dimethylphosphate] + O",49.1 ± 0.7 mN/m
7,CCCCn1cc[n+](CC)c1.CCOP(=O)([O-])OCC [1-butyl-3-ethyl-1H-imidazol-3-ium diethyl phosphate] + CCO,29.5 ± 0.4 mN/m
8,CCCCn1cc[n+](CC)c1.CCOP(=O)([O-])OCC [1-butyl-3-ethyl-1H-imidazol-3-ium diethyl phosphate] + CO,31.4 ± 0.4 mN/m
9,CCCCn1cc[n+](CC)c1.CCOP(=O)([O-])OCC [1-butyl-3-ethyl-1H-imidazol-3-ium diethyl phosphate] + O,32.3 ± 0.5 mN/m
10,CCCCn1cc[n+](C)c1.COP(=O)([O-])OC [1-butyl-3-methyl-1H-imidazolium dimethylphosphate] + CCO,32.3 ± 0.5 mN/m
11,CCCCn1cc[n+](C)c1.COP(=O)([O-])OC [1-butyl-3-methyl-1H-imidazolium dimethylphosphate] + CO,35.9 ± 0.5 mN/m

# Same assay, conditions: 298.15 K, Ring tensiometer, x1 = 0.8
row,Structure (SMILES),surface tension liquid-gas
1,"CCOP(=O)([O-])OCC.CCn1cc[n+](CC)c1 [1,3-diethyl-1H-imidazol-3-ium diethyl phosphate] + CCO",32.5 ± 0.5 mN/m
2,"CCOP(=O)([O-])OCC.CCn1cc[n+](CC)c1 [1,3-diethyl-1H-imidazol-3-ium diethyl phosphate] + CO",36.1 ± 0.5 mN/m
3,"CCOP(=O)([O-])OCC.CCn1cc[n+](CC)c1 [1,3-diethyl-1H-imidazol-3-ium diethyl phosphate] + O",36.1 ± 0.5 mN/m
4,"COP(=O)([O-])OC.Cn1cc[n+](C)c1 [1,3-dimethylimidazolium dimethylphosphate] + CCO",37.5 ± 0.5 mN/m
5,"COP(=O)([O-])OC.Cn1cc[n+](C)c1 [1,3-dimethylimidazolium dimethylphosphate] + CO",43.6 ± 0.6 mN/m
6,"COP(=O)([O-])OC.Cn1cc[n+](C)c1 [1,3-dimethylimidazolium dimethylphosphate] + O",48.9 ± 0.7 mN/m
7,CCCCn1cc[n+](CC)c1.CCOP(=O)([O-])OCC [1-butyl-3-ethyl-1H-imidazol-3-ium diethyl phosphate] + CCO,30.5 ± 0.4 mN/m
8,CCCCn1cc[n+](CC)c1.CCOP(=O)([O-])OCC [1-butyl-3-ethyl-1H-imidazol-3-ium diethyl phosphate] + CO,32.3 ± 0.5 mN/m
9,CCCCn1cc[n+](CC)c1.CCOP(=O)([O-])OCC [1-butyl-3-ethyl-1H-imidazol-3-ium diethyl phosphate] + O,32.3 ± 0.5 mN/m
10,CCCCn1cc[n+](C)c1.COP(=O)([O-])OC [1-butyl-3-methyl-1H-imidazolium dimethylphosphate] + CCO,34 ± 0.5 mN/m
11,CCCCn1cc[n+](C)c1.COP(=O)([O-])OC [1-butyl-3-methyl-1H-imidazolium dimethylphosphate] + CO,38 ± 0.5 mN/m

# Same assay, conditions: 298.15 K, Ring tensiometer, x1 = 0.9
row,Structure (SMILES),surface tension liquid-gas
1,"CCOP(=O)([O-])OCC.CCn1cc[n+](CC)c1 [1,3-diethyl-1H-imidazol-3-ium diethyl phosphate] + CCO",34.1 ± 0.5 mN/m
2,"CCOP(=O)([O-])OCC.CCn1cc[n+](CC)c1 [1,3-diethyl-1H-imidazol-3-ium diethyl phosphate] + CO",35.9 ± 0.5 mN/m
3,"CCOP(=O)([O-])OCC.CCn1cc[n+](CC)c1 [1,3-diethyl-1H-imidazol-3-ium diethyl phosphate] + O",35.9 ± 0.5 mN/m
4,"COP(=O)([O-])OC.Cn1cc[n+](C)c1 [1,3-dimethylimidazolium dimethylphosphate] + CCO",41.4 ± 0.6 mN/m
5,"COP(=O)([O-])OC.Cn1cc[n+](C)c1 [1,3-dimethylimidazolium dimethylphosphate] + CO",46.2 ± 0.6 mN/m
6,"COP(=O)([O-])OC.Cn1cc[n+](C)c1 [1,3-dimethylimidazolium dimethylphosphate] + O",48.6 ± 0.6 mN/m
7,CCCCn1cc[n+](CC)c1.CCOP(=O)([O-])OCC [1-butyl-3-ethyl-1H-imidazol-3-ium diethyl phosphate] + CCO,31.4 ± 0.4 mN/m
8,CCCCn1cc[n+](CC)c1.CCOP(=O)([O-])OCC [1-butyl-3-ethyl-1H-imidazol-3-ium diethyl phosphate] + CO,32.2 ± 0.5 mN/m
9,CCCCn1cc[n+](CC)c1.CCOP(=O)([O-])OCC [1-butyl-3-ethyl-1H-imidazol-3-ium diethyl phosphate] + O,32.2 ± 0.5 mN/m
10,CCCCn1cc[n+](C)c1.COP(=O)([O-])OC [1-butyl-3-methyl-1H-imidazolium dimethylphosphate] + CCO,36 ± 0.5 mN/m
11,CCCCn1cc[n+](C)c1.COP(=O)([O-])OC [1-butyl-3-methyl-1H-imidazolium dimethylphosphate] + CO,38.1 ± 0.5 mN/m

# Same assay, conditions: 298.15 K, Ring tensiometer, x1 = 1
row,Structure (SMILES),surface tension liquid-gas
1,"CCOP(=O)([O-])OCC.CCn1cc[n+](CC)c1 [1,3-diethyl-1H-imidazol-3-ium diethyl phosphate] + CCO",35.5 ± 0.5 mN/m
2,"CCOP(=O)([O-])OCC.CCn1cc[n+](CC)c1 [1,3-diethyl-1H-imidazol-3-ium diethyl phosphate] + CO",35.5 ± 0.5 mN/m
3,"CCOP(=O)([O-])OCC.CCn1cc[n+](CC)c1 [1,3-diethyl-1H-imidazol-3-ium diethyl phosphate] + O",35.5 ± 0.5 mN/m
4,"COP(=O)([O-])OC.Cn1cc[n+](C)c1 [1,3-dimethylimidazolium dimethylphosphate] + CCO",48.4 ± 0.6 mN/m
5,"COP(=O)([O-])OC.Cn1cc[n+](C)c1 [1,3-dimethylimidazolium dimethylphosphate] + CO",48.4 ± 0.6 mN/m
6,"COP(=O)([O-])OC.Cn1cc[n+](C)c1 [1,3-dimethylimidazolium dimethylphosphate] + O",48.4 ± 0.6 mN/m
7,CCCCn1cc[n+](CC)c1.CCOP(=O)([O-])OCC [1-butyl-3-ethyl-1H-imidazol-3-ium diethyl phosphate] + CCO,32.2 ± 0.5 mN/m
8,CCCCn1cc[n+](CC)c1.CCOP(=O)([O-])OCC [1-butyl-3-ethyl-1H-imidazol-3-ium diethyl phosphate] + CO,32.2 ± 0.5 mN/m
9,CCCCn1cc[n+](CC)c1.CCOP(=O)([O-])OCC [1-butyl-3-ethyl-1H-imidazol-3-ium diethyl phosphate] + O,32.2 ± 0.5 mN/m
10,CCCCn1cc[n+](C)c1.COP(=O)([O-])OC [1-butyl-3-methyl-1H-imidazolium dimethylphosphate] + CCO,38 ± 0.5 mN/m
11,CCCCn1cc[n+](C)c1.COP(=O)([O-])OC [1-butyl-3-methyl-1H-imidazolium dimethylphosphate] + CO,38 ± 0.5 mN/m
